Assay results taken from patent publication US20160263116A1, “COMBINATIONS” (GlaxoSmithKline LLC, priority 2012, published 2016).

What was measured:
[1] = tested on: Mero-82 mesothelioma cell line; assay: Anchorage-independent growth-death assay, Mero-82; type: cell-based, human; conditions: single agent, 6 days; for EC50 / IC50: Homo sapiens, 144 h; for EC50 / IC50 / gIC100: anchorage-independent; for EC50: read-out: dEC50; for IC50: read-out: gIC50; for Ymin-T0: negative = net cell kill
Protocol: (§1) Five human mesothelioma cell lines were used in these studies. Cells were grown in RPMI1640 media containing 10% FBS, 1% L-glutamine, 1% sodium pyruvate under standard cell culture conditions. The mesothelioma cell lines: Mero-14, Mero-82, NCI-H2052, NO36, and ONE58. The cellular response to Compound A or B was evaluated in an anchorage-independent cell growth assay that quantified the extent of cell growth inhibition and the net change in cell population. The assay was performed in black, clear bottom, untreated 384-well plates (Greiner #781096). It is important to use either non-tissue culture treated or Low Attachment plates to prevent cells from adhering to the plate during the assay. In brief, the assay was performed as described below. A 1% (weight/volume) stock of methylcellulose solution was prepared by dissolving 5 grams of methylcellulose (Sigma #M0512) in 495 mL of cell culture medium. […] Media can be substituted if the cells require different cell culture medium for growth. The dissolution often took a day with vigorous stirring at 4° C. maintaining sterile conditions. Cells were plated into a 384 well plate with assay conditions of 0.65% methylcellulose (final concentration) and 1000 cells per well in a final volume of 48 μL. […] The cells were mixed by inversion to distribute evenly, bubbles were dispersed and 48 μL was placed into the well with a positive displacement pipette. The plates were placed in a cell culture incubator containing 5% CO2 at 37° C. Serial dilution of compound in DMSO was done in a 384 well plate starting with μL of stock compound solution in the first column and 10 μL of DMSO in the other wells. Ten μL from the compound well was transferred into the DMSO containing well, mixed, and the serial dilution was continued with 10 μL transfers across the plate. Then, 4 μL of this DMSO diluted compound was added into wells of a new 384 well plate containing 105 μL of appropriate growth medium. This 'compound plate' was used to dose the assay plates containing cells in methylcellulose. For combination experiments, 20 μL of stock compound solution was a mixture of Compound A and Compound B at the designated ratio. For an example, for 1 to 1 ratio, 10 ul of Compound A at 40 mM and 10 ul of Compound B at 40 mM was mixed to generate ul of stock compound solution with both Compound A and Compound B at 20 mM concentration. […] Serial dilution and compound plate dilution was done as described above. Two μL from each well of the 'compound plate' was added to the individual wells of the 'cell plates' containing the 48 μL of cells in methylcellulose to initiate the assay. These assay plates were placed in the cell culture incubator for 6 days. One 'cell plate' was selected at random and was developed (see below) with Cell [NT] the time compound was added to the remaining cell plates and represents the time equal zero (T0) plate, i.e. it represents the number of cells at the time of compound addition. After 6 days the assay was stopped and the plates were developed by placing a black sticker on bottom of each plate to block light, 25 μL of CTG was added and then plates were incubate for 20 minutes at room temperature. The plates were scanned using a luminescence protocol on the EnVision (Perkin-Elmer). Results were expressed as a percent of the T0 value and plotted against the compound concentration. […] Positive values indicate net cell growth and negative values represent net cell kill. […] The results for the combination were analyzed by determination of Combination Index (CI) values using both mutually exclusive and mutually non-exclusive assumptions (12). The XC50 denotes that each parameter from the growth-death analysis was used, either gIC50 or gIC100 or […] values, to calculate the CI values. The A+B represents the XC50 value for the combination relative to the concentration of A and the B+A represents the XC50 value for the combination relative to the concentration of B in the combination.

[2] = tested on: NCI-H2052 mesothelioma cell line; assay: Anchorage-independent growth-death assay, NCI-H2052; type: cell-based, human; conditions: single agent, 6 days; for IC50: Homo sapiens, 144 h, read-out: gIC50; for Ymin-T0: negative = net cell kill
Protocol: (§2) Five human mesothelioma cell lines were used in these studies. Cells were grown in RPMI1640 media containing 10% FBS, 1% L-glutamine, 1% sodium pyruvate under standard cell culture conditions. The mesothelioma cell lines: Mero-14, Mero-82, NCI-H2052, NO36, and ONE58. The cellular response to Compound A or B was evaluated in an anchorage-independent cell growth assay that quantified the extent of cell growth inhibition and the net change in cell population. The assay was performed in black, clear bottom, untreated 384-well plates (Greiner #781096). It is important to use either non-tissue culture treated or Low Attachment plates to prevent cells from adhering to the plate during the assay. In brief, the assay was performed as described below. A 1% (weight/volume) stock of methylcellulose solution was prepared by dissolving 5 grams of methylcellulose (Sigma #M0512) in 495 mL of cell culture medium. […] Media can be substituted if the cells require different cell culture medium for growth. The dissolution often took a day with vigorous stirring at 4° C. maintaining sterile conditions. Cells were plated into a 384 well plate with assay conditions of 0.65% methylcellulose (final concentration) and 1000 cells per well in a final volume of 48 μL. […] The cells were mixed by inversion to distribute evenly, bubbles were dispersed and 48 μL was placed into the well with a positive displacement pipette. The plates were placed in a cell culture incubator containing 5% CO2 at 37° C. Serial dilution of compound in DMSO was done in a 384 well plate starting with μL of stock compound solution in the first column and 10 μL of DMSO in the other wells. Ten μL from the compound well was transferred into the DMSO containing well, mixed, and the serial dilution was continued with 10 μL transfers across the plate. Then, 4 μL of this DMSO diluted compound was added into wells of a new 384 well plate containing 105 μL of appropriate growth medium. This 'compound plate' was used to dose the assay plates containing cells in methylcellulose. For combination experiments, 20 μL of stock compound solution was a mixture of Compound A and Compound B at the designated ratio. For an example, for 1 to 1 ratio, 10 ul of Compound A at 40 mM and 10 ul of Compound B at 40 mM was mixed to generate ul of stock compound solution with both Compound A and Compound B at 20 mM concentration. […] Serial dilution and compound plate dilution was done as described above. Two μL from each well of the 'compound plate' was added to the individual wells of the 'cell plates' containing the 48 μL of cells in methylcellulose to initiate the assay. These assay plates were placed in the cell culture incubator for 6 days. One 'cell plate' was selected at random and was developed (see below) with Cell [NT] the time compound was added to the remaining cell plates and represents the time equal zero (T0) plate, i.e. it represents the number of cells at the time of compound addition. […] The plates were scanned using a luminescence protocol on the EnVision (Perkin-Elmer). Results were expressed as a percent of the T0 value and plotted against the compound concentration. […] The results for the combination were analyzed by determination of Combination Index (CI) values using both mutually exclusive and mutually non-exclusive assumptions (12). […]

[3] = tested on: Mero-14 mesothelioma cell line; assay: Anchorage-independent growth-death assay, Mero-14; type: cell-based, human; conditions: single agent, 6 days; for EC50 / IC50: Homo sapiens, 144 h; for EC50 / IC50 / gIC100: anchorage-independent; for EC50: read-out: dEC50; for IC50: read-out: gIC50; for Ymin-T0: negative = net cell kill
Protocol: as §1

[4] = tested on: ONE58 mesothelioma cell line; assay: Anchorage-independent growth-death assay, ONE58; type: cell-based, human; conditions: single agent, 6 days; for IC50: read-out: gIC50; for Ymin-T0: negative = net cell kill
Protocol: as §1

[5] = tested on: five human mesothelioma cell lines; assay: Anchorage-independent growth-death assay, summary over the cell line panel; type: cell-based; conditions: 6 days of compound exposure, FIG. 4
Protocol: Five human mesothelioma cell lines were used in these studies. Cells were grown in RPMI1640 media containing 10% FBS, 1% L-glutamine, 1% sodium pyruvate under standard cell culture conditions. The mesothelioma cell lines: Mero-14, Mero-82, NCI-H2052, NO36, and ONE58.
The cellular response to Compound A or B was evaluated in an anchorage-independent cell growth assay that quantified the extent of cell growth inhibition and the net change in cell population. The assay was performed in black, clear bottom, untreated 384-well plates (Greiner #781096). It is important to use either non-tissue culture treated or Low Attachment plates to prevent cells from adhering to the plate during the assay. In brief, the assay was performed as described below.
A 1% (weight/volume) stock of methylcellulose solution was prepared by dissolving 5 grams of methylcellulose (Sigma #M0512) in 495 mL of cell culture medium. […]
After 6 days the assay was stopped and the plates were developed by placing a black sticker on bottom of each plate to block light, 25 μL of CTG was added and then plates were incubate for 20 minutes at room temperature. The plates were scanned using a luminescence protocol on the EnVision (Perkin-Elmer).
Results were expressed as a percent of the T0 value and plotted against the compound concentration. […]

[6] = tested on: NO36 mesothelioma cell line; assay: Anchorage-independent growth-death assay, NO36; type: cell-based, human; conditions: single agent, 6 days; for IC50: Homo sapiens, 144 h, read-out: gIC50; for Ymin-T0: negative = net cell kill
Protocol: as §2

[7] = Homo sapiens, 144 h, anchorage-independent

SMILES | EC50 [1] | IC50 [1] | gIC100 [1] | Ymin-T0 [1] | IC50 ([2]; anchorage-independent) | gIC100 ([2]; anchorage-independent) | Ymin-T0 [2] | EC50 [3] | IC50 [3] | gIC100 [3] | Ymin-T0 [3] | IC50 [4, 7] | gIC100 ([4]; anchorage-independent) | Ymin-T0 [4] | net change in cell population (Ymin-T0), in words [5] | IC50 ([6]; anchorage-independent) | Ymin-T0 [6] | EC50 ([4]; Homo sapiens, 144 h, anchorage-independent, read-out: dEC50) | gIC100 ([6]; anchorage-independent)
CONC(=O)c1ccccc1Nc1cc(Nc2cc(C)nn2C(C)C)ncc1Cl [Compound A, 2-[(5-Chloro-2-{[3-methyl-1-(1-methylethyl)-1H-pyrazol-5-yl]amino}-4-pyridinyl)amino]-N-(methyloxy)benzamide] | 6900 nM | 16 nM | 983 nM | −53% | 408 nM | 5.73 µM | −30% | 9580 nM | 56 nM | 3888 nM | −52% | 23 nM | 6.135 µM | −14% | generally cytostatic | 17000 nM | 134% |  | 
CC(=O)Nc1cccc(-n2c(=O)n(C3CC3)c(=O)c3c(Nc4ccc(I)cc4F)n(C)c(=O)c(C)c32)c1 [Compound B, N-{3-[3-cyclopropyl-5-(2-fluoro-4-iodo-phenylamino)-6,8-dimethy-2,4,7-trioxo-3,4,6,7-tetrahydro-2H-pyrido[4,3-d]pyrimidin-1-yl]phenyl}acetamide] | 191 nM | 10 nM | 67 nM | −89% | 16 nM |  | 31% | 71 nM | 6.6 nM | 26 nM | −78% | 8.8 nM | 0.045 µM | −92% | cytotoxic in three of the five cell lines | 134 nM | −17% | 190 nM | 2345 nM
